Assay results reported in PubChem BioAssay AID330 (DTP/NCI, 2004).
Values joined by “and” are separate entries in the source; they are usually repeats but may differ in a detail not shown here. Equal values may be shown once. Toxic doses and inconclusive results are not listed. How the source made its calls: active means survival T/C of 150% or more; inactive means T/C below 125% in these data.

System: P388 leukemia ip, CD2F1 mice, survival T/C
Assay: NCI In Vivo Anticancer Drug Screen. Data for tumor model P388 Leukemia (intraperitoneal) in CD2F1 (CDF1) mice
Conditions: endpoint: median survival time, higher = longer survival
Outline: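 Mice carrying the transplanted tumor received test compound or vehicle. Survival was recorded in each group, and the value is the treated-group measurement divided by that of the vehicle-treated control group.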

[1] = dose: 60.0 mg/kg/injection, schedule: Q01DX005 (ip), vehicle: saline with Tween-80
[2] = dose: 120.0 mg/kg/injection, schedule: Q01DX005 (ip), vehicle: saline with Tween-80
[3] = dose: 240.0 mg/kg/injection, schedule: Q01DX005 (ip), vehicle: saline with Tween-80
[4] = dose: 50.0 mg/kg/injection, schedule: Q01DX005 (ip), vehicle: saline with Tween-80
[5] = dose: 100.0 mg/kg/injection, schedule: Q01DX005 (ip), vehicle: saline with Tween-80
[6] = dose: 200.0 mg/kg/injection, schedule: Q01DX005 (ip), vehicle: saline with Tween-80
[7] = dose: 50.0 mg/kg/injection, schedule: Q01DX009 (ip), vehicle: saline
[8] = dose: 100.0 mg/kg/injection, schedule: Q01DX009 (ip), vehicle: saline

Measured: T/C

O=C1CSC(c2ccccc2O)N1c1nc(-c2ccc(Cl)cc2)cs1 (centres undefined)
inactive: dose: 100.0 mg/kg/injection, schedule: Q01DX001 (ip), vehicle: saline with Tween-80 100 % of control | dose: 200.0 mg/kg/injection, schedule: Q01DX001 (ip), vehicle: saline with Tween-80 98 % of control | dose: 400.0 mg/kg/injection, schedule: Q01DX001 (ip), vehicle: saline with Tween-80 87 % of control

Cc1ccc(C(O)(c2ccc(C)cc2)C(C)(C)O)cc1
inactive: [1] 98 % of control | [2] 100 % of control | [3] 103 % of control

O=C(NN1CCCCC1)NN1CCCCC1
inactive: [4] 101 % of control | [5] 100 % of control | [6] 100 % of control

CCOC(OCC)c1ccc(-n2c(N)c(C#N)cnc2=S)c2c1OC2=NC=C(C#N)C#N
inactive: [7] 112 % of control | [8] 102 % of control | dose: 200.0 mg/kg/injection, schedule: Q01DX009 (ip), vehicle: saline 100 % of control

Nc1nc(-c2cccc([N+](=O)[O-])c2)cc(-c2cc(-c3cccc([N+](=O)[O-])c3)nc(N)n2)n1
inactive: dose: 60.0 mg/kg/injection, schedule: Q01DX005 (ip), vehicle: Klucel (hydroxypropylcellulose) (HPC) 94 % of control | dose: 120.0 mg/kg/injection, schedule: Q01DX005 (ip), vehicle: Klucel (hydroxypropylcellulose) (HPC) 90 % of control | dose: 240.0 mg/kg/injection, schedule: Q01DX005 (ip), vehicle: Klucel (hydroxypropylcellulose) (HPC) 96 % of control

NCCC(=O)CN
inactive: dose: 100.0 mg/kg/injection, schedule: Q04DX003 (ip), vehicle: saline 104 % of control | dose: 200.0 mg/kg/injection, schedule: Q04DX003 (ip), vehicle: saline 109 % of control | dose: 400.0 mg/kg/injection, schedule: Q04DX003 (ip), vehicle: saline 104 % of control

Fc1cccc(CSC(=S)Nc2ccc(Cl)c(C(F)(F)F)c2)c1
inactive: dose: 50.0 mg/kg/injection, schedule: Q01DX009 (ip), vehicle: suspension in saline 98 % of control | dose: 100.0 mg/kg/injection, schedule: Q01DX009 (ip), vehicle: suspension in saline 93 % of control | dose: 200.0 mg/kg/injection, schedule: Q01DX009 (ip), vehicle: suspension in saline 98 % of control

COC1=C(Br)C(O)C2(C=C1Br)CC(C(=O)NCC(O)COc1c(Br)cc(C(O)CNC(=O)C3=NOC4(C=C(Br)C(OC)=C(Br)C4O)C3)cc1Br)=NO2 (centres undefined)
inactive: dose: 25.0 mg/kg/injection, schedule: Q01DX009 (ip), vehicle: saline + Tween-80 + alcohol 110 % of control | dose: 50.0 mg/kg/injection, schedule: Q01DX009 (ip), vehicle: saline + Tween-80 + alcohol 112 % of control and 92 % of control | dose: 100.0 mg/kg/injection, schedule: Q01DX009 (ip), vehicle: saline + Tween-80 + alcohol 112 % of control and 92 % of control | dose: 200.0 mg/kg/injection, schedule: Q01DX009 (ip), vehicle: saline + Tween-80 + alcohol 102 % of control

CCOc1c(N=Nc2ccc(Cl)cc2)c(-c2ccccc2)nn1C(N)=S
inactive: dose: 50.0 mg/kg/injection, schedule: Q01DX005 (ip), vehicle: saline + Tween-80 + alcohol 108 % of control | dose: 100.0 mg/kg/injection, schedule: Q01DX005 (ip), vehicle: saline + Tween-80 + alcohol 94 % of control | dose: 200.0 mg/kg/injection, schedule: Q01DX005 (ip), vehicle: saline + Tween-80 + alcohol 99 % of control

CCOC(=O)C(C#N)C=Nc1cccc(N(C)C)c1 (centres undefined)
inactive: dose: 50.0 mg/kg/injection, schedule: Q01DX009 (ip), vehicle: Klucel (hydroxypropylcellulose) (HPC) 108 % of control | dose: 100.0 mg/kg/injection, schedule: Q01DX009 (ip), vehicle: Klucel (hydroxypropylcellulose) (HPC) 117 % of control | dose: 200.0 mg/kg/injection, schedule: Q01DX009 (ip), vehicle: Klucel (hydroxypropylcellulose) (HPC) 104 % of control

CC1CCC(n2cnc3c(=S)nc[nH]c32)O1 (centres undefined)
inactive: dose: 66.0 mg/kg/injection, schedule: Q01DX009 (ip), vehicle: saline with Tween-80 104 % of control | dose: 100.0 mg/kg/injection, schedule: Q01DX009 (ip), vehicle: saline with Tween-80 113 % of control | dose: 100.0 mg/kg/injection, schedule: Q04DX003 (ip), vehicle: saline with Tween-80 109 % of control | dose: 150.0 mg/kg/injection, schedule: Q01DX009 (ip), vehicle: saline with Tween-80 90 % of control | dose: 200.0 mg/kg/injection, schedule: Q01DX009 (ip), vehicle: saline with Tween-80 100 % of control | dose: 200.0 mg/kg/injection, schedule: Q04DX003 (ip), vehicle: saline with Tween-80 118 % of control | dose: 400.0 mg/kg/injection, schedule: Q04DX003 (ip), vehicle: saline with Tween-80 118 % of control

COC(=O)C(=O)C(C(=O)c1cccc2ccccc12)c1nc2n(c1O)C(=N)N=N2 (centres undefined)
inactive: [1] 109 % of control | [2] 104 % of control | [3] 100 % of control

CCN(CC)CCN(CC)CC.O.[Cu+2].[O-][Cl+3]([O-])([O-])O
inactive: dose: 3.12 mg/kg/injection, schedule: Q01DX009 (ip), vehicle: saline 112 % of control | dose: 6.25 mg/kg/injection, schedule: Q01DX009 (ip), vehicle: saline 100 % of control | dose: 12.5 mg/kg/injection, schedule: Q01DX009 (ip), vehicle: saline 114 % of control

Oc1ccccc1/C=N/Nc1nnnn1-c1ccccc1
inactive: dose: 100.0 mg/kg/injection, schedule: Q01DX001 (ip), vehicle: Klucel (hydroxypropylcellulose) (HPC) 102 % of control | dose: 200.0 mg/kg/injection, schedule: Q01DX001 (ip), vehicle: Klucel (hydroxypropylcellulose) (HPC) 102 % of control | dose: 400.0 mg/kg/injection, schedule: Q01DX001 (ip), vehicle: Klucel (hydroxypropylcellulose) (HPC) 98 % of control

CCN(CC)CCCCCCCCOC(=O)c1cc(OC)c(OC)c(OC)c1
inactive: dose: 12.5 mg/kg/injection, schedule: Q01DX005 (ip), vehicle: saline 101 % of control | dose: 25.0 mg/kg/injection, schedule: Q01DX005 (ip), vehicle: saline 97 % of control | dose: 50.0 mg/kg/injection, schedule: Q01DX005 (ip), vehicle: saline 96 % of control | dose: 60.0 mg/kg/injection, schedule: Q01DX005 (ip), vehicle: saline 99 % of control

CC[N+](C)(CC)CCNc1cc2c(c3c(=O)c4ccccc4sc13)CCCC2
inactive: dose: 25.0 mg/kg/injection, schedule: Q01DX005 (ip), vehicle: distilled water + Tween-80 119 % of control | dose: 50.0 mg/kg/injection, schedule: Q01DX005 (ip), vehicle: distilled water + Tween-80 106 % of control | dose: 100.0 mg/kg/injection, schedule: Q01DX005 (ip), vehicle: distilled water + Tween-80 101 % of control

O=[N+]([O-])c1ccc2[nH]c3cnccc3c2c1
inactive: dose: 12.5 mg/kg/injection, schedule: Q01DX009 (ip), vehicle: other 106 % of control | dose: 25.0 mg/kg/injection, schedule: Q01DX009 (ip), vehicle: other 105 % of control | dose: 50.0 mg/kg/injection, schedule: Q01DX009 (ip), vehicle: other 108 % of control | dose: 100.0 mg/kg/injection, schedule: Q01DX009 (ip), vehicle: other 107 % of control

CN(C)[C@@H]1C(=O)C(C(=O)NCNC(CO)(CO)CO)=C(O)[C@@]2(O)C(=O)C3=C(O)c4c(O)cccc4[C@@](C)(O)[C@H]3C[C@@H]12
inactive: dose: 25.0 mg/kg/injection, schedule: Q01DX009 (ip), vehicle: saline 100 % of control | [7] 95 % of control | [8] 100 % of control

Clc1nc2cc3c(cc2n2cccc12)oc1ccccc13
inactive: dose: 25.0 mg/kg/injection, schedule: Q01DX005 (ip), vehicle: saline with Tween-80 108 % of control | [4] 110 % of control | [5] 110 % of control | [6] 110 % of control

C=C(C)C1CC=C(C)C(OCCN(CC)CC)C1 (centres undefined)
inactive: dose: 50.0 mg/kg/injection, schedule: Q01DX005 (ip), vehicle: Klucel (hydroxypropylcellulose) (HPC) 100 % of control | dose: 100.0 mg/kg/injection, schedule: Q01DX005 (ip), vehicle: Klucel (hydroxypropylcellulose) (HPC) 103 % of control

N=C(N)SC12CC3CC(CC(C3)C1)C2
inactive: dose: 7.5 mg/kg/injection, schedule: Q01DX005 (ip), vehicle: saline with Tween-80 93 % of control | dose: 15.0 mg/kg/injection, schedule: Q01DX005 (ip), vehicle: saline with Tween-80 98 % of control | dose: 30.0 mg/kg/injection, schedule: Q01DX005 (ip), vehicle: saline with Tween-80 99 % of control | [1] 98 % of control

O=C(O)/C=N/OCc1cc2c(cc1Cl)OCO2
inactive: dose: 50.0 mg/kg/injection, schedule: Q04DX003 (ip), vehicle: saline sonified 100 % of control | dose: 100.0 mg/kg/injection, schedule: Q04DX003 (ip), vehicle: saline sonified 100 % of control | dose: 200.0 mg/kg/injection, schedule: Q04DX003 (ip), vehicle: saline sonified 105 % of control
